Results on 6 molecules are retold here after patent publication US11091472B2, “PI-kinase inhibitors with anti-infective activity” (The Board of Trustees of the Leland Stanford Junior …, priority 2016, dated 2021).

Entries after “also recorded” stand apart in the source; their conditions may differ.

One data set in a line: in vitro. The data set is classed as cell-based.
The test system of another data set is HCV replicon. Conditions: HCV replicon system. (In general: In antiviral work, replicon cells carry a viral genome segment that copies itself.)
The next data set concerns ER-localized calnexin. Put plainly: Calnexin co-staining as control for ER morphology. It is filed as cell-based. Conditions: co-stained with antibody to calnexin. The protocol:
(§1) To further confirm its mechanism of action the effect of (1) on PI-4 levels was determined in cells using immunofluorescence to monitor the intracellular localized pools of PI-4. The effect of (1) on intracellular pools of PIP2 was tested, which were predicted to be similarly sensitive to inhibition using (1). […] Uninfected Huh7.5 cells or HCV-infected Huh7.5 cells were used. Cells were treated with […], 500 nM or 1 uM concentrations of (1) or vehicle control, and analyzed by immunofluorescence with antibodies to PI(4)P or PI(4,5)P2 along with an antibody to calnexin to control for ER morphology.

The next data set concerns HCV. Put plainly: HCV standard replication assay. Conditions: Hepatitis C virus, read-out: EC50 against HCV.
The subject of the next data set is PI(4,5)P2. Put plainly: Immunofluorescence of intracellular PIP2 pools in cells. Conditions: Huh7.5 cells, uninfected or HCV-infected, 250 nm, 500 nM or 1 uM. It is filed as cell-based. How it is done:
as §1

The next data set relates to PI(4)P. Put plainly: Immunofluorescence of intracellular PI-4 pools in cells. It is filed as cell-based. Conditions: Huh7.5 cells, uninfected or HCV-infected, 250 nm, 500 nM or 1 uM. How it is done:
as §1

Another data set deals with HCV2a. Put plainly: microbe, parasite or virus in culture. The data set is classed as cell-based, HCV. Conditions: Hepatitis C virus, Huh7.5, read-out: HCV2a EC50.
The next data set is described as follows: Cell toxicity (CC50). Conditions: human, HuH-7 cells. It is filed as cell-based.
A further data set relates to HRV. Put plainly: Rhinovirus antiviral assay. It is filed as cell-based. Conditions: Human rhinovirus sp.
For another data set, the system named is Ebola. Put plainly: microbe, parasite or virus in culture. To be noted: Zaire ebolavirus, read-out: Ebola EC50. It is filed as cell-based.
The test system of another data set is Coxsackie virus B3. Put plainly: Coxsackie virus B3 cell based antiviral assay. Conditions: Enterovirus B.
The next data set relates to MERS coronavirus. Put plainly: microbe, parasite or virus in culture. It is filed as cell-based. Conditions: Middle East respiratory syndrome-related coronavirus, read-out: MERS coronavirus EC50 (uM).
The test system of data set [1] is Adenovirus 5 (Adenoid 75). Put plainly: Adenovirus 5 cell based antiviral assay. To be noted: Human mastadenovirus C.
Another data set concerns Enterovirus 71. Put plainly: Enterovirus 71 cell based antiviral assay. To be noted: Enterovirus A.
The target in the next data set is PI4KIIIA (Homo sapiens (Human), UniProt P42356). Put plainly: PI4KIIIα kinase assay (immunoprecipitated HA-tagged enzyme, [γ-32P]-ATP). It is filed as biochemical. Conditions: kinase activity.
The next data set concerns the target PI3K p110a (Homo sapiens (Human), UniProt P42336). Put plainly: PI3K p110a kinase assay. It is filed as biochemical. To be noted: kinase activity.
The next data set relates to Dengue virus 2. Put plainly: Dengue virus 2 cell based antiviral assay.
For the next data set, the system named is NV (GT1). Put plainly: NV (GT1) cell based antiviral assay. How it is done:
Compounds of interest were tested in a variety of cell based assays for antiviral activity.

The next data set has as its system Influenza A virus H1N1. Put plainly: Influenza A virus H1N1 cell based antiviral assay.
The target of a further data set is PI3K p110g (Homo sapiens (Human), UniProt P48736). Put plainly: PI3K p110g kinase assay. The data set is classed as biochemical. Conditions: kinase activity.
PI3K p110g, sequence (P48736 whole entry): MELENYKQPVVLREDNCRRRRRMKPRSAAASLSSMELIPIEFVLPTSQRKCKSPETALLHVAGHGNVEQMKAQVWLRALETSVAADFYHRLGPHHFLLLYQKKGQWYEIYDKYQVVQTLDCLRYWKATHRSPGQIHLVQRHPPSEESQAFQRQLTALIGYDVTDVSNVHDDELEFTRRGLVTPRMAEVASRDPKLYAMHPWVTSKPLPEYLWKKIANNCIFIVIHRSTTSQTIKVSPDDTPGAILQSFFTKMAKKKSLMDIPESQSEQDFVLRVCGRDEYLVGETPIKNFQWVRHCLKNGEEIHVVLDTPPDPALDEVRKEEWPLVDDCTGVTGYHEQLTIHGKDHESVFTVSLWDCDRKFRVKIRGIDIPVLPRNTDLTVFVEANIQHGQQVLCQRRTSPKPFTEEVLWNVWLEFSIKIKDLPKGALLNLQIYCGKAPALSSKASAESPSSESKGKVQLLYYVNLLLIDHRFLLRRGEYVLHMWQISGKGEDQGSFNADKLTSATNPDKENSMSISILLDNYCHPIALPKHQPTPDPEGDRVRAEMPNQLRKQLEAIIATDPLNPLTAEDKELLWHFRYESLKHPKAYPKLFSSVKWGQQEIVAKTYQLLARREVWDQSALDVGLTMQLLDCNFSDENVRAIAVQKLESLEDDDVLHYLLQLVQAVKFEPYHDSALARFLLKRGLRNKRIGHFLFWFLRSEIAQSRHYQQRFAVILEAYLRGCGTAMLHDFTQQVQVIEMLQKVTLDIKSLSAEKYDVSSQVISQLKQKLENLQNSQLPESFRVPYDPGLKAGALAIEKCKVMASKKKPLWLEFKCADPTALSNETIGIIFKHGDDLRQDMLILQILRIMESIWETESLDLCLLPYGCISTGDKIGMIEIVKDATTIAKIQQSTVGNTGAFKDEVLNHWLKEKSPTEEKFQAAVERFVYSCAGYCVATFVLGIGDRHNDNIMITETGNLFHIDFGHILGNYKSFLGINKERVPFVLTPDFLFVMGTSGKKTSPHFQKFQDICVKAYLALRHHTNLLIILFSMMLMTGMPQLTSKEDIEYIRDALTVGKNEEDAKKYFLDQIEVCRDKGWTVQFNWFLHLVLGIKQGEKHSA
In a further data set the test system is Enterovirus 68. Put plainly: Enterovirus 68 cell based antiviral assay. To be noted: Enterovirus D.
A further data set relates to EV71. Put plainly: EV71 antiviral assay. The data set is classed as cell-based. To be noted: Enterovirus A.
For a further data set, the target named is PI4KIIIB (Bos taurus (Bovine), UniProt O02810). Put plainly: PI4KIIIβ kinase assay (immunoprecipitated HA-tagged enzyme, [γ-32P]-ATP). The data set is classed as biochemical. Conditions: kinase activity.
PI4KIIIB, sequence (O02810 whole entry): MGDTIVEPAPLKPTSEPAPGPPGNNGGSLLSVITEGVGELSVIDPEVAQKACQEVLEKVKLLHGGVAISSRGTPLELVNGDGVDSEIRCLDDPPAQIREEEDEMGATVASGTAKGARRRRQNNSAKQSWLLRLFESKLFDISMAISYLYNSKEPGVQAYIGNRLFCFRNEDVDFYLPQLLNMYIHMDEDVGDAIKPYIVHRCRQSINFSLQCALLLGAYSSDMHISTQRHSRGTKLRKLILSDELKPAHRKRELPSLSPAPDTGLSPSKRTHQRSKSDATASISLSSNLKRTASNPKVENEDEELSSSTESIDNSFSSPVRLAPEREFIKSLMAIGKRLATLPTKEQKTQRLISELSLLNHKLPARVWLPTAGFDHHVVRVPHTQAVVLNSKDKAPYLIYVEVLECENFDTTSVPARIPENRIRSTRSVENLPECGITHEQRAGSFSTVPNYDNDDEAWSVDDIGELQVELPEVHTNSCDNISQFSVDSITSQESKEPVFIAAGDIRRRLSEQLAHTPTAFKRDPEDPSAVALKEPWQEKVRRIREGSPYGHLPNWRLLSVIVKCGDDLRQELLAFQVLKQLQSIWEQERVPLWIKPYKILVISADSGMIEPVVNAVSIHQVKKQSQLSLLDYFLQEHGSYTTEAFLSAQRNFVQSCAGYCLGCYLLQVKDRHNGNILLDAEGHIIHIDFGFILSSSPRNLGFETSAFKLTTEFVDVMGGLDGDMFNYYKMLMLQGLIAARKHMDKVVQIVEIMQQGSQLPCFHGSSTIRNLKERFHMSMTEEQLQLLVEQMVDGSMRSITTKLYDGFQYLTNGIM
The test system of a further data set is Poliovirus (WM-3). Put plainly: microbe, parasite or virus in culture. The data set is classed as cell-based. Conditions: Enterovirus C, read-out: Poliovirus (WM-3) EC50 (uM).
Another data set addresses PI3KC2G (Homo sapiens (Human), UniProt O75747). Put plainly: PI3KC2G kinase assay. To be noted: kinase activity. The data set is classed as biochemical. How it is done: PI-kinase assay: Compounds are tested in C.1.1. PI kinase assays as described by Shokat et al., “A membrane capture assay for lipid kinase activity.” Nat. Protoc.
(§2) Selected compounds of Table 1 and 2 were prepared and tested for inhibition activity in a variety of kinase assays.

Another data set has as its target PI3KC2B (Homo sapiens (Human), UniProt O00750). Put plainly: PI3KC2B kinase assay. To be noted: kinase activity. It is filed as biochemical. The protocol: PI-kinase assay: Compounds are tested in C.1.1. PI kinase assays as described by Shokat et al., “A membrane capture assay for lipid kinase activity.” Nat. Protoc. 2007; 2(10):2459-66.
as §2

PI3K p110a, sequence (P42336 whole entry): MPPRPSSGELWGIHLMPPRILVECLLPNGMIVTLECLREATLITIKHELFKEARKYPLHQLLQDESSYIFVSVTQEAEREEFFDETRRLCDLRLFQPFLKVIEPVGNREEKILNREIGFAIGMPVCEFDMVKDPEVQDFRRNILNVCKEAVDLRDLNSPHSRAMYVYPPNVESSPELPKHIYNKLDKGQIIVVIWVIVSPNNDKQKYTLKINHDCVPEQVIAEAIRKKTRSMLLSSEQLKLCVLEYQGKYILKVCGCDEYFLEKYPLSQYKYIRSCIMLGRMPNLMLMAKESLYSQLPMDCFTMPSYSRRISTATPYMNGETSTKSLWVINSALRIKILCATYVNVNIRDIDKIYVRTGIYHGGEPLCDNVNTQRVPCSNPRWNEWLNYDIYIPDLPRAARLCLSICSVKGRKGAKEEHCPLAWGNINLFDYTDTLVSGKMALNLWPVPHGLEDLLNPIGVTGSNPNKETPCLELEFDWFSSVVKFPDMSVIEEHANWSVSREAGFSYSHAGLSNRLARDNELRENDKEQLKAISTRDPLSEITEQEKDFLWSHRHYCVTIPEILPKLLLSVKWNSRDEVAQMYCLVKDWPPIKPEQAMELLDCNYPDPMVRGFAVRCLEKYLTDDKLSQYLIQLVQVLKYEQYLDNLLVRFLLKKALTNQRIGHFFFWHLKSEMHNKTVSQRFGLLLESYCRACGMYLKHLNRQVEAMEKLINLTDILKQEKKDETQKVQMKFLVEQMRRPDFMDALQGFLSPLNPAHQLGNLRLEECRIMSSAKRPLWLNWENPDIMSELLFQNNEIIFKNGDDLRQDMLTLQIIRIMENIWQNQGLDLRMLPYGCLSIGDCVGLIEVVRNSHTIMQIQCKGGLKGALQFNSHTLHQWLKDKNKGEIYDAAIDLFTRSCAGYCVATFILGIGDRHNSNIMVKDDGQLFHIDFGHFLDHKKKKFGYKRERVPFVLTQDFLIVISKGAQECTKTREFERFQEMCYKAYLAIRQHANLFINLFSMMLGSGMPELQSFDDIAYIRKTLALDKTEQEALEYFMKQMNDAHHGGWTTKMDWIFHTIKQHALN
PI3K p110a, sequence (P27986 whole entry partner): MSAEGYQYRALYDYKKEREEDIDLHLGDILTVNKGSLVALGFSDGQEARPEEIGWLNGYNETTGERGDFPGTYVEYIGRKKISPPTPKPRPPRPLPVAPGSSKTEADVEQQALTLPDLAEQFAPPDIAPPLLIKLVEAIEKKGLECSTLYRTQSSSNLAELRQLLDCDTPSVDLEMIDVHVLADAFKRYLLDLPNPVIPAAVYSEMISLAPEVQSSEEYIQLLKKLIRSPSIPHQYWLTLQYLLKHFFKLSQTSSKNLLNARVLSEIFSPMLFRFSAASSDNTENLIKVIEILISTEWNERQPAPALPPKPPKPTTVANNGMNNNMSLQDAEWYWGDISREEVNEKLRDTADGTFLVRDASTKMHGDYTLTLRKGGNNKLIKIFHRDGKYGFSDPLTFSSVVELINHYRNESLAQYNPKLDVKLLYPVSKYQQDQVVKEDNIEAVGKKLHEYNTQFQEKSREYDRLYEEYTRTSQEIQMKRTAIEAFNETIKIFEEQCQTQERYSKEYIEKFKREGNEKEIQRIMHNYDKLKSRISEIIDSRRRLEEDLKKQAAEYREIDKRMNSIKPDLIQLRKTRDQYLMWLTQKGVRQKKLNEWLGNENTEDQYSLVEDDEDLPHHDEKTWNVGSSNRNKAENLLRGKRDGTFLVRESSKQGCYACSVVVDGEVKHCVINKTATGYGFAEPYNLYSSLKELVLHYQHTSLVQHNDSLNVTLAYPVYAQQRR

A word on the CC50: it is the concentration that lowers cell viability or growth by half. By EC50 is commonly meant the concentration needed to bring the measured effect to its halfway point. Molecule `COc1ccc(-c2sc(NC(=O)C3CCCC3)nc2C)cc1S(=O)(=O)Nc1ccc(O)cc1` [Compound 1] showed a CC50 in the data set “in vitro” above 10 µM. Besides, in the data set on HCV replicon, the selection of resistance entry is given as “resistance was not able to be selected”. Further, the “effects on the ER” value in the data set on ER-localized calnexin is recorded as “absence of any detectable effects on the ER”. In the data set on HCV, the concentration for a half-maximal effect (EC50) was determined as 365 nM. For the same molecule, in the data set on PI(4,5)P2, the “effect on intracellular pools of PIP2 (PI(4,5)P2)” value was “dose-dependent decrease; also recorded: decreases”. Moreover, the “effect on PI-4 (PI(4)P) levels in cells” value in the data set with PI(4)P is “dose-dependent decrease; also recorded: decreases”.

`COc1ccc(-c2sc(NCC3CCCCC3)nc2C)cc1S(=O)(=O)Nc1cccc(C(C)(C)C)c1` [Compound S-32]: the EC50 in the data set with HCV2a was 1000 to 10000 nM; with HRV it was below 1 nM; in the data set with Ebola, 1000 to 10000 nM. This molecule registered a half-maximal cytotoxic concentration (CC50) in the data set “Cell toxicity (CC50)” above 10 µM.

As a reminder, the IC50 is the point on the concentration scale where inhibition reaches its midpoint. A low value points to higher potency. On to `COc1ccc(-c2sc(NC3CCCCCC3)nc2C)cc1S(=O)(=O)Nc1c(C)cccc1C` [Compound S-98], for which the EC50 with Coxsackie virus B3 was 1 to 100 nM; in the data set on MERS coronavirus, above 10 µM; in data set [1], above 10 µM; in the data set on Enterovirus 71, 1 to 100 nM; with HCV2a, 1000 to 10000 nM; with HRV, below 1 nM. The EC50 in the data set with Dengue virus 2 is above 10 µM; in the data set on NV (GT1) it was 1000 to 10000 nM; in the data set on Influenza A virus H1N1 it was above 10 µM; in the data set with Enterovirus 68, below 1 nM; with EV71 it was below 1 nM; with Poliovirus (WM-3) it was 0.001 to 0.1 µM. Besides, the half-inhibitory concentration (IC50) was above 10 µM against PI4KIIIA, above 10 µM against PI3K p110a, above 10 µM on PI3K p110g and below 100 nM against PI4KIIIB. The same molecule displayed a CC50 in “Cell toxicity (CC50)” above 10 µM.

Take `COc1ccc(-c2sc(NC(=O)CC3CCOCC3)nc2C)cc1S(=O)(=O)Nc1ccc(O)cc1` [Compound S-227]: the EC50 with Coxsackie virus B3 is 1 to 100 nM; in the data set on MERS coronavirus, above 10 µM; in data set [1], above 10 µM; in the data set on Enterovirus 71 it was 1 to 100 nM; with HCV2a it was 1 to 100 nM; with Dengue virus 2 it was above 10 µM. Also, the EC50 in the data set with NV (GT1) is 100 to 1000 nM; in the data set with Influenza A virus H1N1 it was above 10 µM; in the data set on Enterovirus 68 it was below 1 nM; with Ebola, 100 to 1000 nM; in the data set on Poliovirus (WM-3), 0.001 to 0.1 µM. Further, the half-maximal inhibitory concentration (IC50) was 1 to 10 µM against PI3KC2G; above 10 µM at PI3KC2B; above 10 µM against PI3K p110a; above 10 µM against PI3K p110g; below 100 nM on PI4KIIIB. In “Cell toxicity (CC50)”, the 50% cytotoxic concentration (CC50) is above 10 µM.

Regarding `COc1ccc(-c2sc(NC(C)C3CCOCC3)nc2C)cc1S(=O)(=O)Nc1ccccc1Cl` (stereo not shown) [Compound S-316], the half-maximal effective concentration (EC50) was 1 to 100 nM with Coxsackie virus B3; 1 to 10 µM in the data set with MERS coronavirus; above 10 µM in data set [1]; 1 to 100 nM with Enterovirus 71; 1 to 100 nM with HRV (Table 5); 1 to 10 µM in the data set on Dengue virus 2. Further, the EC50 in the data set with Influenza A virus H1N1 lay in the range of 1 to 10 µM; in the data set with Enterovirus 68 it was 1 to 100 nM; in the data set with EV71 (Table 5) it was 1 to 100 nM; in the data set on Poliovirus (WM-3), 0.1 to 1 µM.

As for `COc1ccc(-c2sc(NC(C)C3CCOCC3)nc2C)cc1S(=O)(=O)NC1CCC(O)CC1` (stereo not shown) [Compound S-328], the EC50 in the data set with Coxsackie virus B3 is 1 to 100 nM; with MERS coronavirus, above 10 µM; in data set [1], above 10 µM; with Enterovirus 71 it was 1 to 100 nM; with HRV (Table 5), 1 to 100 nM; in the data set on Dengue virus 2, above 10 µM. In addition, the concentration for a half-maximal effect (EC50) with Influenza A virus H1N1 was above 10 µM; with Enterovirus 68 it was 1 to 100 nM; with EV71 (Table 5) it was 1 to 100 nM; in the data set with Poliovirus (WM-3) it was 0.001 to 0.1 µM.
